According to the NIST ThermoML archive (doi:10.1016/j.fluid.2013.06.044):
± gives the expanded uncertainty stated by the source.

How the values were obtained:
[1] = Liquid, Closed cell (Static) method
[2] = refractive index (Na D-line) (dimensionless); settings: 298.15 K; 101.33 kPa; Liquid; Standard Abbe refractometry

| SMILES | vapor or sublimation pressure ([1]; 336.67 K) [kPa] | vapor or sublimation pressure ([1]; 350.33 K) [kPa] | vapor or sublimation pressure ([1]; 350.35 K) [kPa] | vapor or sublimation pressure ([1]; 350.41 K) [kPa] | refractive index [2] | vapor or sublimation pressure ([1]; 350.36 K) [kPa] | vapor or sublimation pressure ([1]; 350.4 K) [kPa] |
| --- | --- | --- | --- | --- | --- | --- | --- |
| CSC [2-thiapropane] | 232.9 ± 1 | 340.4 ± 1.4 | 340.3 ± 0.9 | 340.4 ± 0.9 | 1.43127 ± 0.00031 |  |  |
| COC(C)=O [methyl ethanoate] |  |  |  |  | 1.3589 ± 0.00036 | 196 ± 1 |  |
| CCO [ethanol] |  |  |  |  | 1.35959 ± 0.00037 |  | 96.5 ± 0.9 |
| COC [dimethyl ether] | 1576.5 ± 6.2 |  |  |  |  |  |  |
